According to patent US20180201592A1, “2-AMINO-1,3,4-THIADIAZINE AND 2-AMINO-1,3,4-OXADIAZINE BASED ANTIFUNGAL AGENTS” (F2G Limited, priority 2015, published 2018):
Values after ≈ are worked out from the molar mass of the structure shown. Like-named read-outs stand apart in the source and are kept apart here.

Key:
Aspergillus fumigatus = test: Minimum inhibitory concentration, YAG medium; format: cell-based; conditions: banded MIC grade; for MIC: Aspergillus fumigatus, YAG media
Method: (§1) Between 1 and 5 mgs of compound were accurately weighed out into a sterile Eppendorf tube. The compound was dissolved in DMSO to give a solution containing 5 mg/mL. Tubes were stored at −20° C. until required.
(§2) On the day of testing thawed solutions were vortex mixed to ensure homogeneity. 30 μL of solution was removed and added to 570 μL of sterile water in a separate sterile Eppendorf. The thoroughly mixed solution was used to prepare a series of doubling dilutions in water, in a deep well plate. Thirteen replicate plates were prepared using a Minitrak by aspirating 20 μL from each well into eleven clear polystyrene 96 well plates.
(§3) Spores of Aspergillus spp. (Aspergillus fumigatus [two strains], Aspergillus terreus [two strains], Aspergillus niger and Aspergillus flavus) were harvested from cultures grown on Sabarauds agar for 5 days, and resuspended in PBS/Tween 80 to approx 1×10^7 cfu/mL. Each organism suspension was diluted in YAG medium (1% glucose, 1% ammonium chloride and 0.5% yeast extract) to 0.5-2×10^4cfu/mL. 80 μL of an organism suspension was added to each well of the plate containing drug dilutions.
(§4) This typically produced MIC plates with a drug range 50-0.05 mg/L and organism inocula of 1-2×10^4 cfu/mL for Aspergillus spp. All plates were incubated for 24 hrs at 35° C. Growth was assessed by monitoring the optical density at 485 nm for each well. The MIC of a compound is the lowest drug concentration that inhibits growth of an organism by >70% compared with a drug free control. MICs are recorded as mg/L. In cases where the MIC of an organism is […] the MIC is repeated using a concentration range of 0.5-0.0005 mg/L.

A. fumigatus 210 = test: Minimum inhibitory concentration, YAG medium; format: cell-based, Aspergillus fumigatus; conditions: banded MIC grade; for MIC: Aspergillus fumigatus, 210, YAG media
Method: as §1, §2, §3, §4

A. terreus 49 = test: Minimum inhibitory concentration, YAG medium; format: cell-based, Aspergillus terreus; conditions: banded MIC grade; for MIC: Aspergillus terreus, 49, YAG media
Method: (§5) The compound was dissolved in DMSO to give a solution containing 5 mg/mL. Tubes were stored at −20° C. until required. On the day of testing thawed solutions were vortex mixed to ensure homogeneity. 30 μL of solution was removed and added to 570 μL of sterile water in a separate sterile Eppendorf. The thoroughly mixed solution was used to prepare a series of doubling dilutions in water, in a deep well plate. Thirteen replicate plates were prepared using a Minitrak by aspirating 20 μL from each well into eleven clear polystyrene 96 well plates. Spores of Aspergillus spp. […] All plates were incubated for 24 hrs at 35° C. Growth was assessed by monitoring the optical density at 485 nm for each well. […] MICs are recorded as mg/L.

Aspergillus flavus = test: Minimum inhibitory concentration, YAG medium; format: cell-based; conditions: banded MIC grade; for MIC: Aspergillus flavus, YAG media
Method: as §5

Aspergillus niger = test: Minimum inhibitory concentration, YAG medium; format: cell-based; conditions: banded MIC grade; for MIC: Aspergillus niger, YAG media
Method: as §5

Aspergillus terreus = test: Minimum inhibitory concentration, YAG medium; format: cell-based; conditions: banded MIC grade; for MIC: Aspergillus terreus, YAG media
Method: as §5

C. albicans = test: Minimum inhibitory concentration, RPMI medium; format: cell-based; conditions: banded MIC grade; for MIC: Candida albicans, RPMI media
Method: as §5, with “Assays were also performed in RPMI medium (Roswell Park Memorial Media 1640). To perform MIC tests in this medium, dilutions” for “Spores”, “compounds are prepared in microtitre plates as described above.” for “Aspergillus spp.”, “24-48” for “24”, “The following organisms were tested: […]” for “MICs are recorded as mg/L.”

C. parapsilosis = test: Minimum inhibitory concentration, RPMI medium; format: cell-based; conditions: banded MIC grade; for MIC: Lodderomyces parapsilosis, RPMI media
Method: as §5, with “Assays were also performed in RPMI medium (Roswell Park Memorial Media 1640). To perform MIC tests in this medium, dilutions” for “Spores”, “compounds are prepared in microtitre plates as described above.” for “Aspergillus spp.”, “24-48” for “24”, “The following organisms were tested: […]” for “MICs are recorded as mg/L.”

C. tropicalis = test: Minimum inhibitory concentration, RPMI medium; format: cell-based; conditions: banded MIC grade; for MIC: Candida tropicalis, RPMI media
Method: as §5, with “Assays were also performed in RPMI medium (Roswell Park Memorial Media 1640). To perform MIC tests in this medium, dilutions” for “Spores”, “compounds are prepared in microtitre plates as described above.” for “Aspergillus spp.”, “24-48” for “24”, “The following organisms were tested: […]” for “MICs are recorded as mg/L.”

[1] = read-out: MIC grade C. ALBICANS
[2] = read-out: MIC grade, C. ALBICANS, RPMI media
[3] = read-out: MIC grade C. PARAPSILOSIS
[4] = read-out: MIC grade, C. PARAPSILOSIS, RPMI media

SMILES | MIC grade, A. FUMIGATUS, YAG media (Aspergillus fumigatus) | MIC grade, A. FUMIGATUS 210, YAG media (A. fumigatus 210) | MIC grade, A. TERREUS 49, YAG media (A. terreus 49) | MIC grade, A. FLAVUS, YAG media (Aspergillus flavus) | MIC grade, A. NIGER, YAG media (Aspergillus niger) | MIC grade, A. TERREUS, YAG media (Aspergillus terreus) | MIC grade, C. ALBICANS, RPMI media (C. albicans) | MIC grade, C. PARAPSILOSIS, RPMI media (C. parapsilosis) | MIC grade, C. TROPICALIS, RPMI media (C. tropicalis) | MIC (Aspergillus fumigatus) [µg/mL] | MIC (A. fumigatus 210) [µg/mL] | MIC (A. terreus 49) [µg/mL] | MIC (Aspergillus flavus) [µg/mL] | MIC (Aspergillus niger) [µg/mL] | MIC (Aspergillus terreus) [µg/mL] | MIC (C. albicans; [1]) [µg/mL] | MIC (C. albicans; [2]) [µg/mL] | MIC (C. parapsilosis; [3]) [µg/mL] | MIC (C. parapsilosis; [4]) [µg/mL] | MIC (C. tropicalis) [µg/mL]
NC1=NN=C(CCCCCN2C(=O)c3ccccc3C2=O)CS1 | 4 (4: <0.2 mg/L) | 4 (4: <0.2 mg/L) | 4 (4: <0.2 mg/L) | 4 (4: <0.2 mg/L) | 4 (4: <0.2 mg/L) | 4 (4: <0.2 mg/L) | 1 (1: ≥20 mg/L) | 3 (3: 1-5 mg/L) | 1 (1: ≥20 mg/L) |  |  |  |  |  |  |  |  |  |  | 
CCCC(C)OCCC1=NN=C(N)SC1 (stereo not shown) | 2 (2: 1-5 mg/L) | 3 (3: 0.2-1 mg/L) | 2 (2: 1-5 mg/L) | 2 (2: 1-5 mg/L) | 4 (4: <0.2 mg/L) | 3 (3: 0.2-1 mg/L) | 2 (2: 5-20 mg/L) | 3 (3: 1-5 mg/L) | 1 (1: ≥20 mg/L) |  |  |  |  |  |  |  |  |  |  | 
CCOC(=O)CC1=NN=C(N)SC1 | 2 (2: 1-5 mg/L) | 2 (2: 1-5 mg/L) | 3 (3: 0.2-1 mg/L) | 2 (2: 1-5 mg/L) | 3 (3: 0.2-1 mg/L) | 3 (3: 0.2-1 mg/L) | 3 (3: 1-5 mg/L) | 3 (3: 1-5 mg/L) | 2 (2: 5-20 mg/L) |  |  |  |  |  |  |  |  |  |  | 
Cc1cccc(C2=NN=C(N)SC2)c1 | 1 (1: ≥5 mg/L) | 1 (1: ≥5 mg/L) | 2 (2: 1-5 mg/L) | 1 (1: ≥5 mg/L) | 2 (2: 1-5 mg/L) | 2 (2: 1-5 mg/L) | 1 (1: ≥20 mg/L) | 1 (1: ≥20 mg/L) | 1 (1: ≥20 mg/L) |  |  |  |  |  |  |  |  |  |  | 
COCCCCCN1N=C(N)SC=C1C [4-(5-methoxypentyl)-5-methyl-1,3,4-thiadiazin-2-amine] |  |  |  |  |  |  |  |  |  | ≥ 5 | 1 to 5 (≈ 4.36 to 21.8 µM) | 1 to 5 (≈ 4.36 to 21.8 µM) | 1 to 5 (≈ 4.36 to 21.8 µM) | ≥ 5 | 1 to 5 (≈ 4.36 to 21.8 µM) | ≥ 20 | ≥ 20 | ≥ 20 | 5 to 20 (≈ 21.8 to 87.2 µM) | ≥ 20
NC1=NN=C(CCCCOc2ccccc2)CS1 | 3 (3: 0.2-1 mg/L) | 3 (3: 0.2-1 mg/L) | 4 (4: <0.2 mg/L) | 4 (4: <0.2 mg/L) | 4 (4: <0.2 mg/L) | 4 (4: <0.2 mg/L) | 4 (4: <1 mg/L) | 4 (4: <1 mg/L) | 3 (3: 1-5 mg/L) |  |  |  |  |  |  |  |  |  |  | 
NC1=NN=C(CC(=O)OCc2ccccc2)CS1 | 1 (1: ≥5 mg/L) | 1 (1: ≥5 mg/L) | 2 (2: 1-5 mg/L) | 1 (1: ≥5 mg/L) | 2 (2: 1-5 mg/L) | 2 (2: 1-5 mg/L) | 1 (1: ≥20 mg/L) | 2 (2: 5-20 mg/L) | 1 (1: ≥20 mg/L) |  |  |  |  |  |  |  |  |  |  | 
CCC(=O)OCC1=NN=C(N)SC1 | 3 (3: 0.2-1 mg/L) | 3 (3: 0.2-1 mg/L) | 3 (3: 0.2-1 mg/L) | 3 (3: 0.2-1 mg/L) | 3 (3: 0.2-1 mg/L) | 3 (3: 0.2-1 mg/L) | 1 (1: ≥20 mg/L) | 3 (3: 1-5 mg/L) | 2 (2: 5-20 mg/L) |  |  |  |  |  |  |  |  |  |  | 
NC1=NN=C(CCCCOCc2ccccc2)CS1 | 4 (4: <0.2 mg/L) | 4 (4: <0.2 mg/L) | 4 (4: <0.2 mg/L) | 4 (4: <0.2 mg/L) | 4 (4: <0.2 mg/L) | 4 (4: <0.2 mg/L) | 4 (4: <1 mg/L) | 4 (4: <1 mg/L) | 4 (4: <1 mg/L) |  |  |  |  |  |  |  |  |  |  | 
NC1=NN=C(CCCCCc2ccccn2)CS1 | 3 (3: 0.2-1 mg/L) | 4 (4: <0.2 mg/L) | 4 (4: <0.2 mg/L) | 3 (3: 0.2-1 mg/L) | 4 (4: <0.2 mg/L) | 3 (3: 0.2-1 mg/L) | 2 (2: 5-20 mg/L) | 3 (3: 1-5 mg/L) | 2 (2: 5-20 mg/L) |  |  |  |  |  |  |  |  |  |  | 
COCCOCCC1=NN=C(N)SC1 | 2 (2: 1-5 mg/L) | 2 (2: 1-5 mg/L) | 3 (3: 0.2-1 mg/L) | 2 (2: 1-5 mg/L) | 3 (3: 0.2-1 mg/L) | 3 (3: 0.2-1 mg/L) | 2 (2: 5-20 mg/L) | 2 (2: 5-20 mg/L) | 1 (1: ≥20 mg/L) |  |  |  |  |  |  |  |  |  |  | 
CCCCOC(=O)c1ccc(C2=NN=C(N)SC2)cc1 | 3 (3: 0.2-1 mg/L) | 3 (3: 0.2-1 mg/L) | 2 (2: 1-5 mg/L) | 3 (3: 0.2-1 mg/L) | 3 (3: 0.2-1 mg/L) | 2 (2: 1-5 mg/L) | 1 (1: ≥20 mg/L) | 1 (1: ≥20 mg/L) | 1 (1: ≥20 mg/L) |  |  |  |  |  |  |  |  |  |  | 
CCCCOc1ccc(C2=CSC(N)=NN2C)cc1 [5-(4-butoxyphenyl)-4-methyl-1,3,4-thiadiazin-2-amine] |  |  |  |  |  |  |  |  |  | < 0.2 | < 0.2 | 0.2 to 1 (≈ 0.721 to 3.6 µM) | < 0.2 | < 0.2 | 0.2 to 1 (≈ 0.721 to 3.6 µM) | 1 to 5 (≈ 3.6 to 18 µM) | ≥ 20 | < 1 | 1 to 5 (≈ 3.6 to 18 µM) | 1 to 5 (≈ 3.6 to 18 µM)
CCc1ccc(OCCCCCC2=NN=C(N)SC2)cc1 | 3 (3: 0.2-1 mg/L) | 3 (3: 0.2-1 mg/L) | 4 (4: <0.2 mg/L) | 4 (4: <0.2 mg/L) | 4 (4: <0.2 mg/L) | 4 (4: <0.2 mg/L) | 4 (4: <1 mg/L) | 4 (4: <1 mg/L) | 4 (4: <1 mg/L) |  |  |  |  |  |  |  |  |  |  | 
